In patent publication US10736883B2, “Triazole furan compounds as agonists of the APJ receptor” (AMGEN INC., priority 2016, dated 2020):
pEC50: −log10 of the molar value.

What was measured:
[1] = system: ex vivo naive Sprague Dawley rat hearts; assay: Langendorff isolated perfused rat heart (ex vivo); settings: Langendorff apparatus; for left ventricular dP/dtmax (cardiac contractility) / left ventricular dP/dtmin (cardiac relaxation): isolated perfused rat hearts, compared with vehicle / control (DMSO)
Text: FIG. 1A is a graph of left ventricular dP/dtmax as a function of concentration of Example 210.0 compared with vehicle in ex vivo naive Sprague Dawley rat hearts obtained using the Langendorff apparatus.
FIG. 1B is a graph of left ventricular dP/dtmin as a function of concentration of Example 210.0 compared with vehicle in ex vivo naive Sprague Dawley rat hearts obtained using the Langendorff apparatus.
FIG. 2A is a graph of left ventricular dP/dtmax as a function of concentration of Example 51.0 compared with vehicle in ex vivo naive Sprague Dawley rat hearts obtained using the Langendorff apparatus.
FIG. 2B is a graph of left ventricular dP/dtmin as a function of concentration of Example 51.0 compared with vehicle in ex vivo naive Sprague Dawley rat hearts obtained using the Langendorff apparatus.

[2] = system: isolated rat heart; assay: Isolated rat heart assay with APJ agonist in the presence or absence of AT1R blocker losartan
Text: Evidence for Blockade of AT1R Signaling Enhances the APJ Receptor Signaling Using Ex-Vivo (Isolated Rat Heart Assay) and In Vivo (Myocardial Infraction (MI)-Induced Heart Failure Model)
Naive Sprague Dawley® SD rats were anaesthetized and hearts were excised followed by cannulation in the Langendorff apparatus via aorta. The heart was perfused retrograde with modified oxygenated Krebs-Henseleit buffer. The pressure of the solution causes the aortic valve to shut and the perfusate was then forced into the ostium and the coronary vessels. This allowed the heart to beat for several hours. A balloon was inserted into the left ventricle to measure dp/dtmax as an index of cardiac contractility. The APJ agonist (Example 56.0) was perfused in the presence or absence of AT1R blocker losartan.

[3] = biological target: T1, APJ receptor (Homo sapiens (Human), UniProt P35414); assay: [35S]GTPγS binding assay on membranes from CHO cells stably expressing human APJ receptor; type: biochemical; settings: membranes of CHO cells stably expressing human APJ receptor, means of several independent experiments, read-out: Activity hAPJ SPA EC50 IP
T1 sequence (P35414 whole entry): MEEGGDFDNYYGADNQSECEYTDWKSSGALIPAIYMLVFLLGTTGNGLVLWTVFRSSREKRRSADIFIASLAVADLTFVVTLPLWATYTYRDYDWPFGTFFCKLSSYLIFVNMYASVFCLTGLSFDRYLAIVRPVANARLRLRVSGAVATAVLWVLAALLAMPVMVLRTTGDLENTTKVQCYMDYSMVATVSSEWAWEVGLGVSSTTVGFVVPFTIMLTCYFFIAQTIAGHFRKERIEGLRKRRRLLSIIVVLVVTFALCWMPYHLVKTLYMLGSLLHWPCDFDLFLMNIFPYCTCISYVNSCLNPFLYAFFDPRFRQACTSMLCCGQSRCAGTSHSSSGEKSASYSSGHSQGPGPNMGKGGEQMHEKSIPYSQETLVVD
Procedure, shortened: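 EC50 values were obtained by non-linear regression of [35S]GTPγS (0.2 nM) binding after 90 min at RT, with nonspecific binding defined by 100 μM GTPγS. Reactions used human APJ–expressing CHO cell membranes on WGA PS beads in HEPES pH 7.5 buffer with 5 mM MgCl2, 200 mM NaCl, 3 μM GDP and 0.1% BSA.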

[4] = system: isolated perfused rat hearts; assay: Ex vivo isolated perfused rat heart (Langendorff) assay, load independent inotropic/lusitropic effects; settings: percent change over vehicle; for Isolated Heart Assay dP/dtmax (%): contractility; for Isolated Heart Assay dP/dtmin (%): relaxation
Text: Evidence for Load Independent Inotropic Effects with APJ Agonists Using Ex Vivo Assay (Isolated Perfused Rat Hearts)
Naive Sprague Dawley® SD rats (Harlan laboratories (Livermore, Calif. USA)) were anaesthetized and hearts were excised followed by cannulation in the Langendorff apparatus (Harvard apparatus, Holliston, Mass. USA) via aorta. The heart was perfused retrograde with modified oxygenated Krebs-Henseleit buffer (Skrzypiec-Spring M et al., (2007) J. Pharmacol Toxicol Methods 55: 113-126). The pressure of the solution causes the aortic valve to shut and the perfusate is then forced into the ostium and the coronary vessels. This allows the heart to beat for several hours. A balloon was inserted into the left ventricle (LV) to measure dP/dtmax (derivative of left ventricular pressure) as an index of cardiac contractility. The APJ agonist was perfused constantly in a dose dependent manner into the heart to examine cardiac contractility.
Example 210.0 was infused at different concentrations and load independent contractility was measured by index of LV dP/dtmax and the results are expressed as a percent change over vehicle. […] Example 210.0 was infused at different concentrations and load independent lusitropic effect (relaxation) was measured by index of LV dP/dtmin where results are expressed as percent change over vehicle. […] Example 51.0 was infused at different concentrations and load independent contractility was measured by index of LV dP/dtmax and the results are expressed as a percent change over vehicle. […] Example 51.0 was infused at different concentrations and load independent lusitropic effect (relaxation) was measured by index of LV dP/dtmin where results are expressed as percent change over vehicle.

[5] = system: heart failure rat model; assay: In vivo cardiac contractility in heart failure (MI) rat model; settings: heart failure rats (LAD ligation), acute administration for 30 min
Method: Evidence for Improvement in Cardiac Contractility In Vivo in Heart Failure Rat Model
Based on the ex vivo findings in isolated heart assay, APJ agonists were dosed in vivo to investigate the translation of cardiac contractility in in vivo settings. Male Lewis rats (Charles River, USA) at 2-3 months of age were used for the study. Heart failure was induced by permanent ligation of the left descending coronary artery which results in injury to the heart with an ejection fraction of <35%. APJ agonists were administered dose dependently acutely for a period of 30 min. Administration of example compounds lead to an increase in cardiac contractility as measured by dP/dtmax (derivative of left ventricular pressure) (Table 27).

[6] = system: MI-induced heart failure rats; assay: Cardiovascular effects of Example 56.0 and captopril/losartan on MI-induced heart failure rats; type: in vivo, rat
Method: Cardiovascular Effects of Example 56.0 and Captopril/Losartan on MI-Induced Heart Failure Rats
Male Lewis rats at 2-3 months of age were used for the study. MI was induced by ligation of the LAD. Echocardiography (Echo) was performed at one-week post-MI on rats for verification of infarct size and animal enrollment Animals with ejection fractions more than 40% or no visible infarct in myocardium were excluded from the study. All eligible MI rats were randomly divided into 3 groups: 1) those treated with vehicle; 2) those treated with losartan (0.5 g/L in drink water); and 3) those treated with captopril (0.5 g/L in drink water). Treatments were initiated approximately five weeks post-MI and animals were continuously treated with losartan and captopril in drinking water up to 15 days prior to being assigned into each subgroup. These subgroup groups included the following: 1) cohort treated with vehicle; 2) cohort treated with Example 56.0 at various doses; 3) cohort treated only with losartan; 4) cohort treated with losartan and Example 56.0 at various doses; 5) cohort treated only with captopril; and 6) cohort treated with captopril and Example 56.0 at various doses. A Millar PV catheter was inserted into the right common carotid artery and then advanced to the left ventricle (LV) for cardiac hemodynamic assessment and the peripheral arterial pressure was also monitored by a pressure transducer via a femoral artery access in all rats. Following hemodynamic stabilization, baseline steady-state data was acquired Animals in any Example 56 treated group received intravenous infusion of Example 56.0 in a dose-escalated fashion during cardiac hemodynamic assessment. Blood was drawn for actual PK exposure to derive a PK/PD profile.

[7] = biological target: T1, APJ receptor; settings: apelin-36, apelin-17 and apelin-13 compared; cited from earlier work
[8] = losartan alone compared to control (DMSO)
[9] = Example 56.0 alone over vehicle, intravenous infusion, MI rats

| Compound | pEC50 [3] | Isolated Heart Assay dP/dtmax (%) [4] [%] | Isolated Heart Assay dP/dtmin (%) [4] [%] | MI Rat Model dP/dtmax (%) [5] | other results |
| --- | --- | --- | --- | --- | --- |
| CCCCc1nc(Cl)c(CO)n1Cc1ccc(-c2ccccc2-c2nn[nH]n2)cc1 [losartan] |  |  |  |  | left ventricular (LV) developed pressure (DevP) ([1]; compared with control (DMSO)): no impact on developed pressure; left ventricular (LV) systolic pressure (Sys) ([1]; compared with control (DMSO)): no impact on systolic pressure; left ventricular dP/dtmax (cardiac contractility) [1]: no impact on cardiac contraction; left ventricular dP/dtmin (cardiac relaxation) [1]: no impact on cardiac relaxation; cardiac contraction (dp/dtmax) [2, 8]: did not have any impact; cardiac relaxation (dp/dtmin) [2, 8]: did not have any impact; developed pressure (DevP) [2, 8]: did not have any impact; systolic pressure (Sys) [2, 8]: did not have any impact |
| COc1cccc(OC)c1-n1c(NS(=O)(=O)CCN2C(=O)N(C)CC[C@@H]2C)nnc1-c1ccc(C)o1 (single isomer, unassigned) [Example 204.0, N-(4-(2,6-Dimethoxyphenyl)-5-(5-methyl-2-furanyl)-4H-1,2,4-triazol-3-yl)-2-((6S)-3,6-dimethyl-2-oxotetrahydro-1 (2H)-pyrimidinyl)ethanesulfonamide ethanesulfonamide or N-(4-(2,6-dimethoxyphenyl)-5-(5-methyl-2-furanyl)-4H-1,2,4-triazol-3-yl)-2-((6R)-3,6-dimethyl-2-oxotetrahydro-1(2H)-pyrimidinyl)ethanesulfonamide] | 9.59 | 24.6 | 29.0 | No effect |  |
| COc1cccc(OC)c1-n1c(NS(=O)(=O)[C@@H](C)[C@H](OC)c2ncc(C)cn2)nnc1-c1ccc(C)o1 [Example 261.0] | 9.89 | 34.5 | 53.8 | 30% |  |
| COc1cccc(OC)c1-n1c(NS(=O)(=O)CCc2ccc(F)cc2C#N)nnc1-c1ccco1 [Example 210.0, 2-(2-Cyano-4-fluorophenyl)-N-(4-(2,6-dimethoxyphenyl)-5-(2-furanyl)-4H-1,2,4-triazol-3-yl)ethanesulfonamide] | 8.49 | 25.9 | 34.0 | 95.6% | left ventricular dP/dtmax (cardiac contractility) [1]: increases load independent cardiac contractility; left ventricular dP/dtmin (cardiac relaxation) [1]: increases load independent cardiac relaxation |
| COc1cccc(OC)c1-n1c(NS(=O)(=O)CCc2ccc(Cl)cc2)nnc1-c1ccco1 [Example 111.0, 2-(4-Chlorophenyl)-N-(4-(2,6-dimethoxyphenyl)-5-(furan-2-yl)-4H-1,2,4-triazol-3-yl)ethanesulfonamide] | 8.11 | 19.5 | 24.9 | 97% |  |
| C[C@H](CS)C(=O)N1CCC[C@H]1C(=O)O [Captopril, captopril, reference compound] |  |  |  |  | contractility or ejection fraction ([6]; captopril alone, acute settings, heart failure rats in vivo): does not show a marked improvement |
| COc1cccc(OC)c1-n1c(NS(=O)(=O)[C@@H](C)[C@H](O)c2ncc(F)cn2)nnc1-c1ccc(C)o1 [Example 115.0, (1R,2S)-N-(4-(2,6-dimethoxyphenyl)-5-(5-methylfuran-2-yl)-4H-1,2,4-triazol-3-yl)-1-(5-fluoropyrimidin-2-yl)-1-hydroxypropane-2-sulfonamide] | 9.70 | 32.6 | 34.7 | 30% |  |
| apelin-17 |  |  |  |  | in vitro activity (relative potency) [7]: approximately equipotent |
| COc1cccc(OC)c1-n1c(NS(=O)(=O)[C@@H](C)Cc2ncc(F)cn2)nnc1-c1ccco1 (single isomer, unassigned) [Example 51.0, (2S)—N-(4-(2,6-Dimethoxyphenyl)-5-(2-furanyl)-4H-1,2,4-triazol-3-yl)-1-(5-fluoro-2-pyrimidinyl)-2-propanesulfonamide or (2R)—N-(4-(2,6-dimethoxyphenyl)-5-(2-furanyl)-4H-1,2,4-triazol-3-yl)-1-(5-fluoro-2-pyrimidinyl)-2-propanesulfonamide] | 9.00 | 40.6 | 33.8 | 38% |  |
| COc1cccc(OC)c1-n1c(NS(=O)(=O)[C@@H](C)[C@H](C)c2ncc(F)cn2)nnc1-c1ccc(C)o1 [Example 56.0, (2S,3R)—N-(4-(2,6-dimethoxyphenyl)-5-(5-methyl-2-furanyl)-4H-1,2,4-triazol-3-yl)-3-(5-fluoro-2-pyrimidinyl)-2-butanesulfonamide] | 10.15 | 23.0 | 24.9 | 30% | inotropic effects ([2]; APJ agonist alone): dose-dependent increase; Emax on co-infusion of AT1R blocker losartan ([2]; co-infusion of losartan): increased; increase of potency on co-infusion of AT1R blocker losartan ([2]; co-infusion of losartan): 5 fold; heart rate ([6]; Example 56.0 alone or in combination with an ARB or ACE inhibitor, MI rats): did not significantly change; dp/dtmax [6, 9]: increase; ejection fraction [6, 9]: increase; contractile function ([6]; plus losartan or captopril, over Example 56.0 therapy alone, MI rats): further augmented |
| Apelin-36 (LVQPRGSRNGPGPWQGGRRKFRRQRPRLSHKGPMPF; Apelin-36; UniProt Q9ULZ1 42-77, looked up) |  |  |  |  | in vitro activity (relative potency) [7]: approximately equipotent |
